Data reported in patent EP4706685A1, “PHARMACEUTICAL FORMULATION COMPRISING LANOSTEROL, DERIVATIVE THEREOF, AND CYCLODEXTRIN” (CARBOEXPERT Inc., priority 2023, dated 2024).

Experiments:
[1] = Stability in solution (visual observation of precipitation with auxiliary agent); type: physicochemical; conditions: precipitation observed visually after 24 hours at room temperature
Experimental: Specifically, unenclosed inotodiol or the inotodiol/CD inclusion complex was mixed with a prepared auxiliary agent. The auxiliary agent was prepared at a concentration of 100 to 15,000 ppm based on the weight of inotodiol, and then treated in a sonic bath at 50 °C for 30 minutes. Afterwards, the stability was determined by visually observing whether precipitation occurred after leaving the mixture at room temperature for 24 hours.

[2] = tested on: mouse-derived macrophage cell line (Raw264.7); experiment: Anti-inflammatory effect against LPS in macrophage cell line, cytokine mRNA by RT-PCR; type: cell-based; conditions: treated at 5 ug/ml; LPS 0.1 µg/ml, 4 hours
Experimental: Specifically, Raw264.7 was seeded into a […] at a density of 0.8 X 10^6 cells/well and cultured overnight. Then, the cells were pre-treated with inotodiol and the inotodiol/CD inclusion complex each at different concentrations for 2 hours. The cells were treated with lipopolysaccharide (LPS) at a concentration of 0.1 µg/ml and cultured for 4 hours to induce inflammation, after which RNA was extracted. Then, the mRNA expression of IL-6, IL-1β, and TNF-α was confirmed by a reverse transcription polymerase chain reaction (RT-PCR) method, and the results are shown in FIG. 6.

CC(C)=CC[C@@H](O)[C@@H](C)[C@H]1CC[C@@]2(C)C3=C(CC[C@]12C)[C@@]1(C)CC[C@H](O)C(C)(C)[C@@H]1CC3 [inotodiol, (3S,5R,10S,13R,14R,17R)-17-[(2S,3R)-3-hydroxy-6-methylhept-5-en-2-yl]-4,4,10,13,14-pentamethyl-2,3,5,6,7,11,12,15,16,17-decahydro-1H-cyclopenta[a]phenanthren-3-ol]
ppm of inotodiol in solution ([1]; Kolliphor (5 %)): 500 < ppm
ppm of inotodiol in solution ([1]; Tween 80 (1 %)): 100 < ppm
mRNA expression level of IL-6 [2]: significantly reduced
mRNA expression level of TNF-α [2]: significantly reduced
